The values that follow come from patent publication US6706740B2, “Fungicidal heterocyclic aromatic amides and their compositions, methods of use and preparation” (Dow AgroSciences LLC, priority 1999, dated 2004).

Like-named read-outs stand apart in the source and are kept apart here.

Data set [1] has as its system Phytophthora infestans—PHYTIN. The experiment in a line: whole plant or invertebrate. It is filed as in vivo. The conditions noted are these: Phytophthora, in Solanum lycopersicum, 24 h, read-out: PHYTIN in vivo 1 Day Protectant.
The next data set has as its system Septoria tritici—SEPTTR. The experiment in a line: Leaf Blotch of Wheat, in vivo whole plant, 24 Hour Protectant. The following applies: Zymoseptoria tritici, 24 h, control of fungal infection vs untreated plants, read-out: SEPTTR in vivo 1 Day Protectant.
In a further data set the test system is Erysiphe graminis—ERYSGT. The experiment in a line: Powdery Mildew of Wheat, in vivo whole plant, 24 Hour Protectant. The following applies: control of fungal infection vs untreated plants; for pest or weed control at 100 ppm: Erysiphe, read-out: ERYSGT in vivo 1 Day Protectant.
For data set [2], the system named is Puccinia recondita—PUCCRT. The experiment in a line: Brown Rust of Wheat, in vivo whole plant, 24 Hour Protectant. The conditions noted are these: Puccinia, control of fungal infection vs untreated plants, read-out: PUCCRT in vivo 1 Day Protectant.
Data set [3] relates to Stagonospora nodorum (Leptosphaeria nodorum—LEPTNO). The experiment in a line: In vitro fungal growth inhibition, Stagonospora nodorum (LEPTNO). The format is cell-based. The conditions noted are these: Leptosphaeria, read-out: LEPTNO in vitro Growth Inhibition.
The test system of data set [4] is Leptosphaeria nodorum—LEPTNO. The experiment in a line: Glume Blotch of Wheat, in vivo whole plant, 24 Hour Protectant. The following applies: control of fungal infection vs untreated plants; for pest or weed control at 100 ppm: Leptosphaeria, read-out: LEPTNO in vivo 1 Day Protectant.
Data set [5] deals with Rhizoctonia solani (RHIZSO). The experiment in a line: microbe, parasite or virus in culture. The format is cell-based. The conditions noted are these: Rhizoctonia solani, read-out: RHIZSO in vitro Growth Inhibition.
Data set [6] relates to Mycosphaerella graminicola (Septoria tritici—SEPTTR). The experiment in a line: In vitro fungal growth inhibition, Mycosphaerella graminicola (SEPTTR). The format is cell-based. The conditions noted are these: Zymoseptoria tritici, read-out: SEPTTR in vitro Growth Inhibition.
For data set [7], the system named is Magnaporthe grisea (Pyricularia oryzae—PYRIOR). The experiment in a line: microbe, parasite or virus in culture. It is filed as cell-based. The conditions noted are these: Pyricularia oryzae, read-out: PYRIOR in vitro Growth Inhibition.
Data set [8] relates to Phytophthora infestans (PHYTIN). The experiment in a line: microbe, parasite or virus in culture. It is filed as cell-based. The conditions noted are these: Phytophthora infestans, read-out: PHYTIN in vitro Growth Inhibition.
A further data set concerns Ustilago maydis (USTIMA). The experiment in a line: microbe, parasite or virus in culture. The format is cell-based. The following applies: Mycosarcoma maydis, read-out: USTIMA in vitro Growth Inhibition.
Where [9] appears, read: 100 ppm spray, 24 hour protectant, wheat.
The mark [10] stands for this setting: wheat plants sprayed at 100 ppm, inoculated after 24 hours.
The mark [11] stands for this setting: 100 ppm spray, wheat, 24 hour protectant.

In the case of `CC(C)C(=O)OC1CCC(NC(=O)c2ncccc2O)CC1` (stereo not drawn) [Compound 210], the melting point is 139 to 142 °C. Besides, the pest or weed control at 100 ppm in data set [1] was less than 25%. The pest or weed control at 100 ppm in the data set with Septoria tritici—SEPTTR (setting [9]) is 25 to 74%. Further, in the data set on Erysiphe graminis—ERYSGT (setting [9]), the pest or weed control at 100 ppm was less than 25%. Moreover, the pest or weed control at 100 ppm in data set [2] (setting [9]) is less than 25%. Besides, in [3] (25 ppm in growth medium), the inhibition at 25 ppm was less than 80%. In addition, in data set [4] (setting [9]), the pest or weed control at 100 ppm was less than 25%. Besides, the inhibition at 25 ppm in data set [5] is less than 80%. The inhibition at 25 ppm in data set [6] (25 ppm in growth medium) was less than 80%. The inhibition at 25 ppm in [7] was less than 80%. The inhibition at 25 ppm in data set [8] is less than 80%. Moreover, in the data set with Ustilago maydis (USTIMA), the inhibition at 25 ppm was less than 80%.
As to `O=C(Nc1cccc(Oc2ccccc2)c1)c1cccnc1O` [Compound 521], the melting point is 200 to 201 °C. The pest or weed control at 100 ppm in data set [1] is 25 to 74%. In addition, the pest or weed control at 100 ppm with Septoria tritici—SEPTTR (setting [10]) is less than 25%. Also, the pest or weed control at 100 ppm in the data set with Erysiphe graminis—ERYSGT (setting [10]) is less than 25%. The pest or weed control at 100 ppm in [2] (setting [10]) is less than 25%. Further, the inhibition at 25 ppm in data set [3] (25 ppm in the growth medium) is less than 80%. Besides, in data set [4] (setting [10]), the pest or weed control at 100 ppm was 25 to 74%. For the same compound, in data set [5], the inhibition at 25 ppm is less than 80%. The inhibition at 25 ppm in data set [6] (25 ppm in the growth medium) was less than 80%. The inhibition at 25 ppm in data set [7] was less than 80%. The inhibition at 25 ppm in data set [8] was less than 80%. Also, the inhibition at 25 ppm in the data set on Ustilago maydis (USTIMA) was less than 80%.
Take `COc1ccc(CNC(=O)c2ncccc2O)cc1` [Compound 226]: the melting point fell in the range of 96 to 97 °C. Also, the pest or weed control at 100 ppm in [1] was less than 25%. For the same compound, the pest or weed control at 100 ppm in the data set on Septoria tritici—SEPTTR (setting [9]) is less than 25%. In addition, the pest or weed control at 100 ppm with Erysiphe graminis—ERYSGT (setting [9]) was in the range of 25 to 74%. Moreover, in data set [2] (setting [9]), the pest or weed control at 100 ppm is less than 25%. Also, the inhibition at 25 ppm in data set [3] (25 ppm in growth medium) is less than 80%. Further, the pest or weed control at 100 ppm in data set [4] (setting [9]) was less than 25%. The inhibition at 25 ppm in [5] was less than 80%. Moreover, the inhibition at 25 ppm in data set [6] (25 ppm in growth medium) was less than 80%. Further, the inhibition at 25 ppm in data set [7] was less than 80%. In [8], the inhibition at 25 ppm is more than 80%. The inhibition at 25 ppm with Ustilago maydis (USTIMA) is less than 80%.
For `COc1ccnc(C(=O)N[C@H]2COC(=O)[C@H](CC3CCCC3)[C@@H](OC(=O)C(C)C)[C@H](C)OC2=O)c1O` [Compound 402], the melting point fell in the range of 182 to 184 °C. The pest or weed control at 100 ppm in data set [1] is less than 25%. For the same compound, in the data set with Septoria tritici—SEPTTR (setting [11]), the pest or weed control at 100 ppm was in the range of 25 to 74%. Besides, the “ERYSGT in vivo 1 Day Protectant” value with Erysiphe graminis—ERYSGT (setting [11]) is recorded as “+ +”. Besides, the pest or weed control at 100 ppm in [2] (setting [11]) fell in the range of 25 to 74%. The inhibition at 25 ppm in [3] (25 ppm in growth medium) is more than 80%. Also, in data set [4] (setting [11]), the “LEPTNO in vivo 1 Day Protectant” value was “+ +”. In addition, the inhibition at 25 ppm in data set [5] is less than 80%. The inhibition at 25 ppm in [6] (25 ppm in growth medium) is less than 80%. Besides, in data set [7], the inhibition at 25 ppm was less than 80%. In addition, in data set [8], the inhibition at 25 ppm was less than 80%. For the same compound, the inhibition at 25 ppm with Ustilago maydis (USTIMA) was less than 80%.
With `COc1ccnc(C(=O)Nc2ccc(Nc3cccc(C(F)(F)F)c3)cc2)c1O` [Compound 410], the melting point lay in the range of 204 to 205 °C. Besides, the pest or weed control at 100 ppm in [1] is less than 25%. The pest or weed control at 100 ppm in the data set with Septoria tritici—SEPTTR (setting [11]) is less than 25%. Moreover, the pest or weed control at 100 ppm with Erysiphe graminis—ERYSGT (setting [11]) was less than 25%. Further, the pest or weed control at 100 ppm in [2] (setting [11]) was less than 25%. Moreover, the inhibition at 25 ppm in data set [3] (25 ppm in growth medium) was less than 80%. The pest or weed control at 100 ppm in [4] (setting [11]) is 25 to 74%. In data set [5], the inhibition at 25 ppm is less than 80%. Further, the inhibition at 25 ppm in [6] (25 ppm in growth medium) was less than 80%. Besides, the inhibition at 25 ppm in [7] is less than 80%. Besides, the inhibition at 25 ppm in [8] was less than 80%. Further, the inhibition at 25 ppm in the data set on Ustilago maydis (USTIMA) was less than 80%.
For `CSc1nnc(C(=O)NC2CCCCCCC2)c(O)n1` [Compound 546], the melting point lay within 208 to 213 °C. The pest or weed control at 100 ppm in data set [1] was less than 25%. Further, the pest or weed control at 100 ppm in the data set on Septoria tritici—SEPTTR (setting [10]) lay within 25 to 74%. In addition, the pest or weed control at 100 ppm in the data set on Erysiphe graminis—ERYSGT (setting [10]) was less than 25%. Moreover, the pest or weed control at 100 ppm in data set [2] (setting [10]) lay within 25 to 74%. In addition, in data set [3] (25 ppm in the growth medium), the inhibition at 25 ppm was less than 80%. Besides, the pest or weed control at 100 ppm in data set [4] (setting [10]) was in the range of 25 to 74%. The inhibition at 25 ppm in data set [5] is less than 80%. For the same compound, the inhibition at 25 ppm in [6] (25 ppm in the growth medium) is less than 80%. In addition, the inhibition at 25 ppm in data set [7] was less than 80%. Also, the inhibition at 25 ppm in data set [8] is more than 80%. In the data set with Ustilago maydis (USTIMA), the inhibition at 25 ppm was less than 80%.
Compound `COc1ccnc(C(=O)Nc2ccc(Oc3ccc(C(F)(F)F)cn3)cc2)c1O` [Compound 462] registered a melting point of 141 to 143 °C. The pest or weed control at 100 ppm in data set [1] is less than 25%. In addition, the pest or weed control at 100 ppm in the data set with Septoria tritici—SEPTTR (setting [10]) is 25 to 74%. In addition, the pest or weed control at 100 ppm in the data set with Erysiphe graminis—ERYSGT (setting [10]) was less than 25%. The pest or weed control at 100 ppm in data set [2] (setting [10]) lay in the range of 25 to 74%. For the same compound, the inhibition at 25 ppm in data set [3] (25 ppm in the growth medium) was less than 80%. In addition, in data set [4] (setting [10]), the pest or weed control at 100 ppm was 25 to 74%. Further, the inhibition at 25 ppm in data set [5] was less than 80%. For the same compound, in data set [6] (25 ppm in the growth medium), the inhibition at 25 ppm was more than 80%. The inhibition at 25 ppm in data set [7] is more than 80%. Further, the inhibition at 25 ppm in [8] was less than 80%. For the same compound, the inhibition at 25 ppm in the data set with Ustilago maydis (USTIMA) was less than 80%.

A word on the inhibition: it is how much of the control response was suppressed. Usually melting point stands for the temperature of the solid-liquid transition.
